The results in this text go back to patent US11033539B2, “Compounds of formulas (VII), (VIII), (IX), (XI), (XII), (XIII), and (XIV) as muscarinic receptor 4(M4) antagonists for treating neurological diseases” (Neurocrine Biosciences, Inc., priority 2015, dated 2021).

The experiment deals with human M4 receptor (Homo sapiens (Human), UniProt P08173). In words: Radioligand (tritiated N-methylscopolamine) binding assay, M4. The settings on record: Ki against the M4 receptor; membranes from CHO cells expressing human M4; tritiated N-methylscopolamine 1.5 nM; read-out: Ki. On the procedure: Binding affinity (Ki) of compounds was measured by inhibition of radioligand binding to membranes from CHO cells expressing human M1, M2, M3, M4 and M5 receptors. Membranes were prepared by nitrogen cavitation and differential centrifugation as previously described (Hoare et al., Mol. Pharmacol. 2003 March; 63(3): 751-65). The radioligand employed was tritiated N-methylscopolamine, used at a concentration of 1.5 nM. A dose-response of twelve concentrations of compound was used, ranging from 10 μM to […]. The assay buffer was 50 mM HEPES, 100 mM NaCl, 5 mM MgCl2, 1 mM ethylenediaminetetraacetic acid, pH-adjusted to pH 7.4. Membranes, radioligand and compound were incubated together for 90 minutes at 37° C., in a total volume of 150 μl in a 96-well plate. Receptor-bound radioligand was then collected by harvesting the assay over glass fiber filters pretreated with polyethylenimine to trap the cell membranes, using rapid vacuum filtration. Harvesting and radioactivity counting was conducted as previously described (see, e.g., Hoare et al., Mol. Pharmacol. 2003 63(3):751-65); Erratum at Mol. Pharmacol. 2005 July; 68(1): 260).
human M4 receptor, sequence (P08173 whole entry): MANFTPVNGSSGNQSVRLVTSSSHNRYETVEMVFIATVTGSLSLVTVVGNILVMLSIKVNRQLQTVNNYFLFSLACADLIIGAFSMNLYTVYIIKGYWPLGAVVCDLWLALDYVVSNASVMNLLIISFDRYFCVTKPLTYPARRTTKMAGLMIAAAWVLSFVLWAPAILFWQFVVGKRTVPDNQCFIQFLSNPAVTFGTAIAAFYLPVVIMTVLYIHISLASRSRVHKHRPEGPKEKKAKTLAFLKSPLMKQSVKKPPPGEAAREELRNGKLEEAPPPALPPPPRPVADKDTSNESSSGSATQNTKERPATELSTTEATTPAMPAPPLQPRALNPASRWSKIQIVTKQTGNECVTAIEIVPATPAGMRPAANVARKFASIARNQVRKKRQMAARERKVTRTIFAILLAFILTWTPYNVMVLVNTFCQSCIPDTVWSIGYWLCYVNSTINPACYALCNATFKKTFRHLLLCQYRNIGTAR

A word on the Ki: it is the dissociation constant of the complex between target and ligand, obtained from inhibition or displacement. Regarding `C[C@H]1CN(c2cc(F)c(F)c(F)c2)CCN1C(=O)NCCC1CCN(Cc2ccccc2)CC1` [4-24, (2S)-N-[2-(1-benzylpiperidin-4-yl)ethyl]-2-methyl-4-(3,4,5-trifluorophenyl)piperazine-1-carboxamide], the Ki lay in the range of 10 to 100 nM.

As to `Cc1c(C(=O)NCCC2CCN(Cc3ccncc3)CC2)cnc2cc(-c3cccc(C(F)(F)F)c3)nn12` [19-5], the Ki is 100 to 1000 nM.

As to `C[C@@H]1CN(c2ncc(C(F)(F)F)cn2)C[C@@H](C)N1C(=O)NCCC1CCN(Cc2ccccc2)CC1` [26-5, (2R,6R)-N-[2-(1-benzylpiperidin-4-yl)ethyl]-2,6-dimethyl-4-[5-(trifluoromethyl)pyrimidin-2-yl]piperazine-1-carboxamide], the Ki is less than 10 nM.

In the case of `C[C@@H]1CN(c2cnc(C(F)(F)F)nc2)C[C@H](C)N1C(=O)NCCC1CCN(CCc2ccccc2)CC1` [6-56, (2R,6S)-2,6-dimethyl-N-{2-[1-(2-phenylethyl)piperidin-4-yl]ethyl}-4-[2-(trifluoromethyl)pyrimidin-5-yl]piperazine-1-carboxamide], the Ki lay within 10 to 100 nM.

Regarding `O=C(NC1CCN(c2ccc(OC(F)(F)F)cc2)CC1)OCCC1CCN(Cc2ccccc2)CC1` [12-11, 2-(1-benzylpiperidin-4-yl)ethyl N-{1-[4-(trifluoromethoxy)phenyl]piperidin-4-yl}carbamate], the inhibition constant (Ki) was in the range of 10 to 100 nM.

With `CC(=O)c1ccc(N2CCN(C(=O)NCCC3CCN(Cc4ccccc4)CC3)CC2)cc1` [8-36, 4-(4-acetylphenyl)-N-[2-(1-benzylpiperidin-4-yl)ethyl]piperazine-1-carboxamide], the Ki fell in the range of 100 to 1000 nM.

In the case of `O=C(NCCC1CCN(Cc2ccccc2)CC1)c1ccc(SC(F)(F)F)cc1` [9-56, N-[2-(1-benzylpiperidin-4-yl)ethyl]-4-[(trifluoromethyl)sulfanyl]benzamide], the Ki lay in the range of 100 to 1000 nM.

As to `COc1nc(N2C[C@@H](C)N(C(=O)NCCC3CCN(Cc4ccccc4)CC3)[C@@H](C)C2)ncc1C#N` [4-69, (2R,6S)-N-[2-(1-benzylpiperidin-4-yl)ethyl]-4-(5-cyano-4-methoxypyrimidin-2-yl)-2,6-dimethylpiperazine-1-carboxamide], the Ki was 10 to 100 nM.

Consider `C[C@@H]1CN(c2ncc(F)cc2F)CCN1C(=O)NCCC1CCN(Cc2ccccc2)CC1` [4-48, (2R)-N-[2-(1-benzylpiperidin-4-yl)ethyl]-4-(3,5-difluoropyridin-2-yl)-2-methylpiperazine-1-carboxamide], for which the Ki was in the range of 10 to 100 nM.

As to `C[C@@H]1CN(c2cc(F)c(F)c(F)c2)CCN1C(=O)NCCC1CCN(Cc2cc(F)cc(F)c2)CC1` [6-23, (2R)-N-(2-{1-[(3,5-difluorophenyl)methyl]piperidin-4-yl}ethyl)-2-methyl-4-(3,4,5-trifluorophenyl)piperazine-1-carboxamide], the Ki lay within 100 to 1000 nM.

In the case of `C[C@@H]1CN(c2cc(F)c(F)cc2F)CCN1C(=O)NCCC1CCN(Cc2ccccc2)CC1` [4-36, (2R)-N-[2-(1-benzylpiperidin-4-yl)ethyl]-2-methyl-4-(2,4,5-trifluorophenyl)piperazine-1-carboxamide], the Ki fell in the range of 10 to 100 nM.

With `C[C@@H]1CN(c2ncc(C#N)cn2)C[C@H](C)N1C(=O)NCCC1CCN(Cc2ccncc2)CC1` [6-62, (2R,6S)-4-(5-cyanopyrimidin-2-yl)-2,6-dimethyl-N-{2-[1-(pyridin-4-ylmethyl)piperidin-4-yl]ethyl}piperazine-1-carboxamide], the Ki lay within 100 to 1000 nM.

For the molecule “N-(2-{1-[(4-hydroxyphenyl)methyl]piperidin-4-yl}ethyl)-4-phenoxybenzamide [11-10]”, the Ki lay within 100 to 1000 nM.

`C[C@@H]1CN(c2cnc(C(F)(F)F)nc2)C[C@H](C)N1C(=O)NCCC1CCN(Cc2ccc(F)cc2)CC1` [6-55, (2R,6S)-N-(2-{1-[(4-fluorophenyl)methyl]piperidin-4-yl}ethyl)-2,6-dimethyl-4-[2-(trifluoromethyl)pyrimidin-5-yl]piperazine-1-carboxamide]: the Ki lay in the range of 10 to 100 nM.

For the molecule `C[C@@H]1CN(c2ccc(Cl)nc2)CCN1C(=O)NCCC1CCN(Cc2ccccc2)CC1` [22-11], the Ki was in the range of 10 to 100 nM.

Turning to `O=C(NCCC1CCN(Cc2ccc(O)cc2)CC1)C1CCN(c2ccc(OC(F)(F)F)cc2)CC1` [11-1, N-(2-{1-[(4-hydroxyphenyl)methyl]piperidin-4-yl}ethyl)-1-[4-(trifluoromethoxy)phenyl]piperidine-4-carboxamide], the Ki fell in the range of 10 to 100 nM.

For the molecule `C[C@H]1CN(c2ncc(C#N)cn2)C[C@H](C)N1C(=O)NCCC1CCN(Cc2ccccc2)CC1` [26-3], the Ki is 100 to 1000 nM.

For `CC1(C(=O)NCCC2CCN(Cc3ccccc3)CC2)CCN(c2ccccc2OC(F)(F)F)CC1` [10-4, N-[2-(1-benzylpiperidin-4-yl)ethyl]-4-methyl-1-[2-(trifluoromethoxy)phenyl]piperidine-4-carboxamide], the inhibition constant Ki is 100 to 1000 nM.

In the case of `Cc1ccnc(N2CCC(C(=O)NCCC3CCN(Cc4ccccc4)CC3)CC2)c1` [9-52, N-[2-(1-benzylpiperidin-4-yl)ethyl]-1-(4-methylpyridin-2-yl)piperidine-4-carboxamide], the Ki lay in the range of 100 to 1000 nM.

Regarding `Cc1c(C(=O)NCCC2CCN(Cc3ccccc3)CC2)cnc2cc(-c3ccccn3)nn12` [18-2, N-[2-(1-benzylpiperidin-4-yl)ethyl]-7-methyl-2-(pyridin-2-yl)pyrazolo[1,5-a]pyrimidine-6-carboxamide], the Ki was in the range of 100 to 1000 nM.

Turning to `CC(C)CN1CCC(CCNC(=O)N2[C@H](C)CN(c3ncc(C#N)cn3)C[C@@H]2C)CC1` [21-6], the inhibition constant Ki is 100 to 1000 nM.

Regarding `C[C@@H]1CN(c2cc(F)c(F)c(F)c2)CCN1C(=O)NCCN1CCC(O)(Cc2ccccc2)CC1` [7-7, (2R)-N-[2-(4-benzyl-4-hydroxypiperidin-1-yl)ethyl]-2-methyl-4-(3,4,5-trifluorophenyl)piperazine-1-carboxamide], the inhibition constant Ki was in the range of 100 to 1000 nM.

Turning to `CN(CCNC(=O)C1CCN(c2ccc(OC(F)(F)F)cc2)CC1)[C@@H]1CCN(Cc2ccccc2)C1` [9-26, N-(2-{[(3R)-1-benzylpyrrolidin-3-yl](methyl)amino}ethyl)-1-[4-(trifluoromethoxy)phenyl]piperidine-4-carboxamide], the Ki is 10 to 100 nM.

As for `C[C@@H]1CN(c2ncc(F)c(C#N)n2)CCN1C(=O)NCCC1CCN(Cc2ccccc2)CC1` [4-55, (2R)-N-[2-(1-benzylpiperidin-4-yl)ethyl]-4-(4-cyano-5-fluoropyrimidin-2-yl)-2-methylpiperazine-1-carboxamide], the Ki fell in the range of 100 to 1000 nM.

Regarding `C[C@@H]1CN(c2cc(F)cc(C#N)c2)CCN1C(=O)NCC[C@H]1CCN(Cc2ccccc2)C1` [7-8, (2R)-N-{2-[(3S)-1-benzylpyrrolidin-3-yl]ethyl}-4-(3-cyano-5-fluorophenyl)-2-methylpiperazine-1-carboxamide], the Ki lay within 100 to 1000 nM.

Turning to `C[C@@H]1CN(c2ccc(F)c(C#N)c2)CCN1C(=O)NCCC1(CO)CCN(Cc2ccccc2)CC1` [7-2, (2R)-N-{2-[1-benzyl-4-(hydroxymethyl)piperidin-4-yl]ethyl}-4-(3-cyano-4-fluorophenyl)-2-methylpiperazine-1-carboxamide], the Ki lay in the range of 10 to 100 nM.

In the case of `Cc1cc(C(=O)NC(C)C)nc(N2CCN(C(=O)NCCC3CCN(Cc4ccccc4)CC3)[C@H](C)C2)n1` [27-13], the Ki lay in the range of 100 to 1000 nM.
